Target: interaction between p53 and MDM2 proteins (recombinant GST-tagged MDM2 / biotinylated p53 peptide) (Homo sapiens, UniProt Q00987)
Test: HTRF assay of inhibition of the p53-MDM2 interaction
Assay type: binding
Details: 0.2% BSA
Protocol: The ability of the compounds to inhibit the interaction between p53 and MDM2 proteins was measured by an HTRF (homogeneous time-resolved fluorescence) assay in which recombinant GST-tagged MDM2 binds to a peptide that resembles the MDM2-interacting region of p53 (Lane et al.). Binding of GST-MDM2 protein and p53-peptide (biotinylated on its N-terminal end) is registered by the FRET (fluorescence resonance energy transfer) between Europium (Eu)-labeled anti-GST antibody and streptavidin-conjugated Allophycocyanin (APC).
Test is performed in black flat-bottom 384-well plates (Costar) in a total volume of 40 uL containing: 90 nM biotinylate peptide, 160 ng/ml GST-MDM2, 20 nM streptavidin-APC (PerkinElmerWallac), 2 nM Eu-labeled anti-GST-antibody (PerkinElmerWallac), 0.2% bovine serum albumin (BSA), 1 mM dithiothreitol (DTT) and 20 mM Tris-borate saline (TBS) buffer as follows: Add 10 uL of GST-MDM2 (640 ng/ml working solution) in reaction buffer to each well. Add 10 uL diluted compounds (1:5 dilution in reaction buffer) to each well, mix by shaking. Add 20 uL biotinylated p53 peptide (180 nM working solution) in reaction buffer to each well and mix on shaker. Incubate at 37° C. for 1 h. Add 20 uL streptavidin-APC and Eu-anti-GST antibody mixture (6 nM Eu-anti-GST and 60 nM streptavidin-APC working solution) in TBS buffer with 0.2% BSA, shake at room temperature for 30 minutes and read using a TRF-capable plate reader at 665 and 615 nm (Victor 5, Perkin ElmerWallac). If not specified, the reagents were purchased from Sigma Chemical Co.

interaction between p53 and MDM2 proteins (recombinant GST-tagged MDM2 / biotinylated p53 peptide), sequence (Q00987 whole entry): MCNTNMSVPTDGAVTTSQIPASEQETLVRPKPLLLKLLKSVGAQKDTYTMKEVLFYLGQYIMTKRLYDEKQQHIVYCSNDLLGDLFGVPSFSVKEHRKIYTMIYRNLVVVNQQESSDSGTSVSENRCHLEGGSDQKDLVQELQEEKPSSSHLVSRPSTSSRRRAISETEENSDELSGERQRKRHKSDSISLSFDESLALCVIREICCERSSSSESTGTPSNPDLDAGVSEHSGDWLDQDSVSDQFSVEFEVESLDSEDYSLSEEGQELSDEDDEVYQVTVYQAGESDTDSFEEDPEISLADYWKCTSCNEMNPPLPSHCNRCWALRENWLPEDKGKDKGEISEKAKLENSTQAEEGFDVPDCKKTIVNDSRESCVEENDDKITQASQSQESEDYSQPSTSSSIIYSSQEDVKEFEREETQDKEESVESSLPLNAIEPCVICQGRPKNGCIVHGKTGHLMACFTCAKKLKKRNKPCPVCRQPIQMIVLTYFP

In the case of O=C1C[C@@H](c2cccc(Cl)c2)[C@]2(C(=O)Nc3cc(Cl)ccc32)[C@@H](c2cc(Br)ccc2Oc2ccc(C(=O)NCCN3CCCC3)cc2)N1 (racemic) [Example 56, racemic(2′R, 3R, 4′S)-2′-{5-bromo-2-[4-(2-pyrrolidin-1-yl-ethylcarbamoyl)-phenoxy]-phenyl}-6-chloro-4′-(3-chlorophenyl)spiro[3H-indole-3,3′-piperidine]-2,6′(1H)-dione], the IC50 was 0.131 µM.

In the case of CC(=O)N1CCC(Oc2ccc(I)cc2[C@H]2NC(=O)[C@@H](c3cccc(Cl)c3)C[C@]23C(=O)Nc2cc(Cl)ccc23)CC1 [Example 5c, chiral(2′R,3R,4′S)-2′-[2-(1-acetyl-4-piperidinyloxy)-5-iodo-phenyl]-6-chloro-4′-(3-chlorophenyl)spiro[3H-indole-3,3′-piperidine]-2,6′(1H)-dione], the IC50 was 0.034 µM.

CC(=O)Nc1ccc(Oc2ccc(Cl)cc2[C@H]2NC(=O)C[C@@H](c3cccc(Cl)c3)[C@]23C(=O)Nc2cc(Cl)ccc23)cc1 (racemic) [Example 87, racemic(2′R, 3R, 4′S)-2′-[2-(4-acetylamino-phenoxy)-5-chloro-phenyl]-6-chloro-4′-(3-chlorophenyl)spiro[3H-indole-3,3′-piperidine]-2,6′(1H)-dione] showed an IC50 of 0.048 µM.

C#Cc1ccc(OC2CCN(C(=O)N(CC)CC)CC2)c([C@H]2NC(=O)C[C@@H](c3cccc(Cl)c3)[C@]23C(=O)Nc2cc(Cl)ccc23)c1 (racemic) [Example 22b, racemic(2′R,3R,4′S)-6-chloro-4′-(3-chlorophenyl)-2′-[2-(1-diethylcarbamoyl-4-piperidinyloxy)-5-ethynyl-phenyl]spiro[3H-indole-3,3′-piperidine]-2,6′(1H)-dione] gave an IC50 of 0.042 µM.

Molecule C#Cc1ccc(OCC2CCN(C(=O)OC(C)(C)C)CC2)c([C@H]2NC(=O)C[C@@H](c3cccc(Cl)c3)[C@]23C(=O)Nc2cc(Cl)ccc23)c1 (racemic) [Example 2, racemic(2′R,3R,4′S)-2′-[2-(1-(tert-butoxycarbonyl)-4-piperidinylmethoxy)-5-ethynyl-phenyl]-6-chloro-4′-(3-chlorophenyl)spiro[3H-indole-3,3′-piperidine]-2,6′(1H)-dione] has an IC50 of 0.205 µM.

Reference: patent publication US8134001B2, “Spiroindolinone derivatives” (Hoffmann-La Roche Inc., priority 2007, dated 2012)
